According to article PMC6930660, “Synthesis and Comparative Structure–Activity Study of Carbohydrate-Based Phenolic Compounds as α-Glucosidase Inhibitors and Antioxidants” (Molecules, 2019):

What was measured:
[1] = DPPH radical scavenging assay (antioxidant activity); settings: for EC50: MES-NaOH buffer pH 6.0, 15 min in the dark; for Antioxidant Trolox-eq (TE): trolox-equivalent (mol-trolox/mol-sample) = slope of sample / slope of trolox
Protocol: The antioxidant activity was assessed by employing the 2,2-diphenyl-1-picrylhydrazyl (DPPH) radical scavenging assay, according to the previously published method. In total, 100 μL of each sample (1000–10 μg/mL in 50%EtOH/ H2O ) or trolox (160–0 μM in 50% EtOH/ H2O ), and 50 μL of 2-(N-morpholino)ethanesulfonic acid (MES)-NaOH buffer (200 mM, pH = 6.0), and 50 μL of an 800 μM DPPH diluted in 99.5% EtOH were mixed in 96-well plates. Following shaking the microplate for 15 min in the dark, the absorbance was recorded at 520 nm using a microplate reader (Bio-Rad, Model 680). Effective percentages (%) were calculated as follows: Effective percentages (%) = 1−As/Ab ×100 where As is the absorbance of the sample and Ab is the absorbance of the blank (without samples, 50% EtOH/ H2O solution was used instead).
The trolox-equivalent (sample-mol/trolox-mol) was calculated as follows: Trolox−equivalent (mol−trolox/mol−sample) = Ss/St where Ss is the slope of the sample and St is the slope of trolox.

[2] = dissolution of the sample in water for the α-glucosidase assay; format: physicochemical; design: key: −: Did not dissolve in water; settings: samples prepared in H2O
Protocol: (§1) The α-glucosidase inhibitory activity of all samples was assayed utilizing a commercially available FUJIFILM α-glucosidase inhibitory activity assay kit. In total, 25 μL of each sample (25–2000 μg/mL in H2O ) or acarbose (0.5–8 μg/mL in H2O ), 50 μL of 18.5 mM maltose diluted in maleic anhydride buffer (100 mM, pH = 6.0), and 25 μL of the rat α-glucosidase solution were incubated in a micro-tube at 37 °C for 30 min. Subsequently, 400 μL of purified water was added to the solution and the reaction mixture was boiled for 3 min to deactivate α-glucosidase. The generated glucose was measured by LabAssay™ glucose (mutarotase-GOD method). In total, 100 μL of the reaction solution and 150 μL of the coloring solution were incubated in 96-well plates at 37 °C for 10 min, and the absorbance was recorded at 505 nm using a microplate reader (Bio-Rad, Model 680). The inhibition percentage was calculated using the following Equation: Inhibition percentage (%) = 1−As−Ab/Ac ×100 where As is the absorbance of the analyzed sample, Ab is the absorbance of the blank (immediate deactivation), and Ac is the absorbance of the control ([…]). Acarbose was used as the positive control.

[3] = biological target: rat α-glucosidase; assay: α-glucosidase inhibitory activity assay (FUJIFILM kit, maltose substrate, glucose measured by mutarotase-GOD method); format: biochemical; settings: rat α-glucosidase, 18.5 mM maltose, maleic anhydride buffer pH 6.0, 37 °C, 30 min; mean ± S.D. of n = 2
Protocol: as §1

Molecule | antioxidant activity (in words) [1] | EC50 ([1]; mean ± S.D. of n = 3) [µM] | solubility in water (no α-glucosidase IC50 obtained) [2] | IC50 [3] [µM] | Antioxidant Trolox-eq (TE) ([1]; mean ± S.D. of n = 3) | Antioxidant Trolox-eq (TE) ([1]; mean ± S.D. of n = 3, listed as tellimagrandin I)
O=C(OC[C@H]1OC[C@H](OC(=O)c2cccc(O)c2)[C@@H](OC(=O)c2cccc(O)c2)[C@@H]1OC(=O)c1cccc(O)c1)c1cccc(O)c1 [Compound 57, 1,5-Anhydro-2,3,4,6-tetrakis-O-(3-hydroxybenzoyl)-D-glucitol] | no antioxidant activity was observed | > 78 | −^d |  |  | 
O=C(OC[C@H]1OC[C@H](OC(=O)c2ccc(O)cc2)[C@@H](OC(=O)c2ccc(O)cc2)[C@@H]1OC(=O)c1ccc(O)cc1)c1ccc(O)cc1 [Compound 58, 1,5-Anhydro-2,3,4,6-tetrakis-O-(4-hydroxybenzoyl)-D-glucitol] | no antioxidant activity was observed | > 78 | −^d |  |  | 
COC(=O)c1cc(O)cc(O)c1 [Methyl 3,5-dihydroxybenzoate, methyl 3,5-dihydroxybenzoate, reference compound] | did not exhibit any notable activity |  |  | > 300 |  | 
COC(=O)c1cccc(O)c1 [Methyl 3-hydroxybenzoate, methyl 3-hydroxybenzoate, reference compound] | did not exhibit any notable activity |  |  | > 660 |  | 
COC(=O)c1ccc(O)cc1 [Methyl 4-hydroxybenzoate, methyl 4-hydroxybenzoate, reference compound] | did not exhibit any notable activity |  |  | > 660 |  | 
COC(=O)c1cc(O)c(O)c(O)c1 [Methyl gallate, reference compound] |  | 19.6 ± 0.11 |  | 90.5 ± 6.97 | 2.42 ± 0.27 | 
Tellimagrandin I [reference compound] |  | 6.31 ± 0.27 |  | 3.37 ± 0.04 | 7.04 ± 0.37 | 7.04
